Each structure is given as a SMILES string. Where only a bound is given, the exact number is not on record here.

The IC50 is the concentration that gives 50% inhibition. The low end stands for inhibition by little substance, the high end for a need for much substance.

One experiment has as its target T1, purified human HDAC6 (Homo sapiens, UniProt Q9UBN7).
T1 construct: purchased BPS Bioscience 5006
T1 sequence (Q9UBN7 1-1215): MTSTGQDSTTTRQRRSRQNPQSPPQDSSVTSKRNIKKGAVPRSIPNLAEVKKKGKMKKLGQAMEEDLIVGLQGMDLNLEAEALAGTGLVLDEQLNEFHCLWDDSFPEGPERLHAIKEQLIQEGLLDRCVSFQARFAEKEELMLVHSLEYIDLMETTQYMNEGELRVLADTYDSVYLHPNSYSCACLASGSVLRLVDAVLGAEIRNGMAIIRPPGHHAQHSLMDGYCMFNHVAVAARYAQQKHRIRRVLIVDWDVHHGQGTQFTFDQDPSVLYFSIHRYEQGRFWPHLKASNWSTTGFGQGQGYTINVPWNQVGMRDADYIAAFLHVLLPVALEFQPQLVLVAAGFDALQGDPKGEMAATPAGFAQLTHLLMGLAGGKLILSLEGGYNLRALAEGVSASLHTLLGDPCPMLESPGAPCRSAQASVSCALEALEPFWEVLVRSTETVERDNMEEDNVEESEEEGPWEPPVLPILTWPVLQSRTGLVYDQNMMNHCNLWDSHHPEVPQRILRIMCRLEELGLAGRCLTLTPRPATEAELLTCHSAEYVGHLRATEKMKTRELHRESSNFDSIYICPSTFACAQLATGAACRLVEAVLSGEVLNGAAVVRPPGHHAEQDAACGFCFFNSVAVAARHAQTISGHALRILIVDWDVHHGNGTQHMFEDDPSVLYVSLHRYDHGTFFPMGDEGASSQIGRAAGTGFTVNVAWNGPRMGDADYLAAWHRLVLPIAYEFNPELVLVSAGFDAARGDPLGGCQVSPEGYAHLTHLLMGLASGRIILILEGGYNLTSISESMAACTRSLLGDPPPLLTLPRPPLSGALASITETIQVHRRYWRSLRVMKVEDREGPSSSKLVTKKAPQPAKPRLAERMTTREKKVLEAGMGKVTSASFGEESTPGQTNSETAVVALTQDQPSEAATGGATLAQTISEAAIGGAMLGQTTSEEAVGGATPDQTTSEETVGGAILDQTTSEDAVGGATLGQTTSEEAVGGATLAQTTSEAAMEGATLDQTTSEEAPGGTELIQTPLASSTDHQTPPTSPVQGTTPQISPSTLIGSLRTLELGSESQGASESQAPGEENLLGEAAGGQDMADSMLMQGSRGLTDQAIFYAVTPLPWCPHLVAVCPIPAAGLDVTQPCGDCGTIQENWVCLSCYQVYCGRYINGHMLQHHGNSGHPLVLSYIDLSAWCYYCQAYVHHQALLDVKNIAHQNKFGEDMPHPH
As to the kind of experiment: HDAC6 Enzyme Assay. The class given is biochemical. As to conditions: bin: greater than 500 nM and less than 1 μM (lower bound in nM, upper bound in μM). A digest of the protocol: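 Purified human HDAC6 incubated 1 h at 30 °C with Ac-Arg-Gly-Lys(Ac)-AMC and compound; trichostatin A stop, trypsin release of AMC, fluorescence Ex 340/Em 460 nm. IC50 from concentration–response relative to DMSO.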
Take `C[C@H](NC(=O)c1ccc(-c2ccccc2)cc1)c1cccc(C(=O)NO)c1` [Compound I-393, N-((1S)-1-{3-[(hydroxyamino)carbonyl]phenyl}ethyl)biphenyl-4-carboxamide]: the IC50 lay within 500 to 1000 nM.

Still in this experiment, the particulars now being: bin: greater than 1 μM.
For `CC(C)C(NC(=O)c1cc2ccccc2s1)c1cccc(C(=O)NO)c1` (stereo not drawn) [Compound I-390, N-(1-{3-[(hydroxyamino)carbonyl]phenyl}-2-methylpropyl)-1-benzothiophene-2-carboxamide], the 50% inhibitory concentration (IC50) was over 1000 nM.
The same measure, in the same setting: with `Cn1c(C(=O)NC(c2ccc(C(=O)NO)cc2)C(C)(C)C)cc2oc(-c3ccccc3)cc21` (stereo not drawn) [Compound I-392, N-(1-{4-[(hydroxyamino)carbonyl]phenyl}-2,2-dimethylpropyl)-4-methyl-2-phenyl-4H-furo[3,2-b]pyrrole-5-carboxamide] the figure was over 1000 nM.
Still for that read-out and setting: with `CC(C)(C)CC(=O)NC(c1ccc(C(=O)NO)cc1)C(C)(C)C` (stereo not drawn) [Compound I-396, 4-{1-[(3,3-dimethylbutanoyl)amino]-2,2-dimethylpropyl}-N-hydroxybenzamide] the figure was over 1000 nM.
For `CC(NC(=O)Cc1ccc(F)cc1F)c1ccc(C(=O)NO)cc1` (stereo not drawn) [Compound I-402, 4-(1-{[(2,4-difluorophenyl)acetyl]amino}ethyl)-N-hydroxybenzamide], the IC50 was over 1000 nM.
On the same count and under the same terms, to `C[C@@H](NS(=O)(=O)c1ccc(C(F)(F)F)cc1)c1cccc(C(=O)NO)c1` [Compound I-403, N-hydroxy-3-[(1R)-1-({[4-(trifluoromethyl)phenyl]sulfonyl}amino)ethyl]benzamide] belongs over 1000 nM; to `COc1cc(C(=O)NO)ccc1C(C)NC(=O)c1cccn1C` (stereo not drawn) [Compound I-481, N-(1-{4-[(hydroxyamino)carbonyl]-2-methoxyphenyl}ethyl)-1-methyl-1H-pyrrole-2-carboxamide], over 1000 nM; to `COc1cc(C(=O)NO)ccc1C(C)NC(=O)C12CC3CC(CC(C3)C1)C2` (stereo not drawn) [Compound I-483, N-(1-{4-[(hydroxyamino)carbonyl]-2-methoxyphenyl}ethyl)adamantane-1-carboxamide], over 1000 nM.
Turning to `COc1cc(C(=O)NO)ccc1C(C)NC(=O)C(C)(C)C` (stereo not drawn) [Compound I-484, 4-{1-[(2,2-dimethylpropanoyl)amino]ethyl}-N-hydroxy-3-methoxybenzamide], the IC50 was over 1000 nM.
Same read-out and setting: to `Cc1cc(C(=O)NO)ccc1C(C)NC(=O)c1cccn1C` (stereo not drawn) [Compound I-486, N-(1-{4-[(hydroxyamino)carbonyl]-2-methylphenyl}ethyl)-1-methyl-1H-pyrrole-2-carboxamide] belongs over 1000 nM; to `CC(NS(=O)(=O)c1ccc(C(F)(F)F)cc1)c1ccc(C(=O)NO)cc1` (stereo not drawn) [Compound I-488, N-hydroxy-4-[1-({[4-(trifluoromethyl)phenyl]sulfonyl}amino)ethyl]benzamide], over 1000 nM; to `Cc1cc(C(=O)NO)ccc1C(C)NC(=O)C(C)(C)C` (stereo not drawn) [Compound I-490, 4-{1-[(2,2-dimethylpropanoyl)amino]ethyl}-N-hydroxy-3-methylbenzamide], over 1000 nM.
On the same count and under the same terms, with `Cc1cc(C(=O)NO)ccc1C(C)NC(=O)C12CC3CC(CC(C3)C1)C2` (stereo not drawn) [Compound I-491, N-(1-{4-[(hydroxyamino)carbonyl]-2-methylphenyl}ethyl)adamantane-1-carboxamide] the figure was over 1000 nM.

Still in this experiment, the particulars now being: purified human HDAC6, substrate Ac-Arg-Gly-Lys(Ac)-AMC, 1 hour at 30° C.; reported as bins.
Compound `CC(C)C(NC(=O)c1ccn(C)n1)c1ccc(C(=O)NO)cc1` (stereo not drawn) [Compound I-389, N-(1-{4-[(hydroxyamino)carbonyl]phenyl}-2-methylpropyl)-1-methyl-1H-pyrazole-3-carboxamide] came in with an IC50 of under 100 nM.
For `CC(NC(=O)NC1CCCCC1)c1ccc(C(=O)NO)cc1` (stereo not drawn) [Compound I-395, 4-(1-{[(cyclohexylamino)carbonyl]amino}ethyl)-N-hydroxybenzamide], the IC50 lay within 100 to 500 nM.
On the same count and under the same terms, with `Cc1cc(C)cc(NC(=O)NC(C)c2ccc(C(=O)NO)cc2)c1` (stereo not drawn) [Compound I-397, 4-[1-({[(3,5-dimethylphenyl)amino]carbonyl}amino)ethyl]-N-hydroxybenzamide] the figure was under 100 nM; with `CC(NC(=O)Nc1ccc(C(F)(F)F)cc1)c1ccc(C(=O)NO)cc1` (stereo not drawn) [Compound I-399, N-hydroxy-4-{1-[({[4-(trifluoromethyl)phenyl]amino}carbonyl)amino]ethyl}benzamide], under 100 nM; with `O=C(NO)c1ccc([C@H](NC(=O)c2cc3ccccc3o2)C(F)(F)F)cc1` [Compound I-400, N-((1S)-2,2,2-trifluoro-1-{4-[(hydroxyamino)carbonyl]phenyl}ethyl)-1-benzofuran-2-carboxamide], under 100 nM.
Same read-out and setting: to `CC(NC(=O)c1cc2ccccc2o1)c1cccc(C(=O)NO)c1` (stereo not drawn) [Compound I-401, N-(1-{3-[(hydroxyamino)carbonyl]phenyl}ethyl)-1-benzofuran-2-carboxamide] belongs 100 to 500 nM.
On to `COc1cc(C(=O)NO)ccc1C(C)NC(=O)c1cc2ccccc2s1` (stereo not drawn) [Compound I-480, N-(1-{4-[(hydroxyamino)carbonyl]-2-methoxyphenyl}ethyl)-1-benzothiophene-2-carboxamide], for which the IC50 lay in the range of 100 to 500 nM.
On the same count and under the same terms, with `Cc1cc(C(=O)NO)ccc1C(C)NC(=O)c1cc2ccccc2s1` (stereo not drawn) [Compound I-485, N-(1-{4-[(hydroxyamino)carbonyl]-2-methylphenyl}ethyl)-1-benzothiophene-2-carboxamide] the figure was 100 to 500 nM; with `C[C@@H](NC(=O)C1(C)CCNCC1)c1ccc(C(=O)NO)cc1` [Compound I-487, N-((1R)-1-{4-[(hydroxyamino)carbonyl]phenyl}ethyl)-4-methylpiperidine-4-carboxamide], 100 to 500 nM; with `CC(NS(=O)(=O)c1ccc(C(F)(F)F)cc1)c1ccc(C(=O)NO)cc1` (stereo not drawn) [Compound I-488, N-hydroxy-4-[1-({[4-(trifluoromethyl)phenyl]sulfonyl}amino)ethyl]benzamide], 100 to 500 nM.
On the same count and under the same terms, with `C[C@@H](NCC1(C)CCCCC1)c1ccc(C(=O)NO)cc1` [Compound I-489, N-hydroxy-4-((1R)-1-{[(1-methylcyclohexyl)methyl]amino}ethyl)benzamide] the figure was 100 to 500 nM; with `Cc1ccc(NC(=O)N[C@@H](c2ccc(C(=O)NO)cc2)C(C)C)cc1C` [Compound I-512, 4-[(1R)-1-({[(3,4-dimethylphenyl)amino]carbonyl}amino)-2-methylpropyl]-N-hydroxybenzamide], under 100 nM.
Same read-out and setting: to `C[C@H](NC(=O)N[C@H](C)c1ccc(C(=O)NO)cc1)c1ccccc1` [Compound I-513, N-hydroxy-4-[(1R)-1-({[(1S)-1-phenylethyl]carbamoyl}amino)ethyl]benzamide] belongs under 100 nM.
As for `CC(C)[C@@H](NC(=O)N[C@H](C)c1ccccc1)c1ccc(C(=O)NO)cc1` [Compound I-514, N-hydroxy-4-[(1R)-2-methyl-1-({[(1R)-1-phenylethyl]carbamoyl}amino)propyl]benzamide], the IC50 was under 100 nM.
The same measure, in the same setting: with `CC(C)[C@@H](NC(=O)Nc1ccccc1-c1ccccc1)c1ccc(C(=O)NO)cc1` [Compound I-515, 4-((1R)-1-{[(biphenyl-2-ylamino)carbonyl]amino}-2-methylpropyl)-N-hydroxybenzamide] the figure was under 100 nM.
On the same count and under the same terms, to `CC(C)[C@@H](NC(=O)N[C@@H](C)c1ccccc1)c1ccc(C(=O)NO)cc1` [Compound I-516, N-hydroxy-4-{(1R)-2-methyl-1-[({[(1S)-1-phenylethyl]amino}carbonyl)amino]propyl}benzamide] belongs under 100 nM; to `C[C@@H](NC(=O)N[C@H](C)c1ccc(C(=O)NO)cc1)c1ccccc1` [Compound I-517, N-hydroxy-4-[(1R)-1-({[(1R)-1-phenylethyl]carbamoyl}amino)ethyl]benzamide], 100 to 500 nM.

Values taken from patent US9382197B2, “Substituted hydroxamic acids and uses thereof” (Millennium Pharmaceuticals, Inc., priority 2010, dated 2016).
